As a reminder, the Ki is the dissociation constant of the complex between target and ligand, obtained from inhibition or displacement.

The structures appear in SMILES notation.

Results on 21 compounds are retold here after patent publication US8022099B2, “N-benzyl pyrrolidine derivatives” (Hoffmann-La Roche Inc., priority 2008, dated 2011).

System in the first test: not given
Assay: not given
The note with it: phase II trial; altered behaviour, delusion, hallucinations, extreme emotions, excited motor activity, incoherent speech; cited from earlier work.
Regarding `CC(=O)N(C)C1(c2ccccc2)CCN(CCC[C@]2(c3ccc(Cl)c(Cl)c3)CCCN(C(=O)c3ccccc3)C2)CC1` [SR 142,801, Osanetant], the “activity on positive symptoms of schizophrenia” value is “active”.

The test is the same for the next values; noted with them: phase II trial; depression, anhedonia, social isolation, memory and attention deficits; cited from earlier work.
Consider `CC(=O)N(C)C1(c2ccccc2)CCN(CCC[C@]2(c3ccc(Cl)c(Cl)c3)CCCN(C(=O)c3ccccc3)C2)CC1` [SR 142,801, Osanetant], for which the “activity in the treatment of negative symptoms of schizophrenia” value was “inactive”.

The next test deals with T1, human NK3 receptor (Homo sapiens, UniProt P29371).
T1 construct: expressed in transfected cells; host or cells: HEK293 cells (transient expression), membrane preparation
T1 sequence (P29371 1-465): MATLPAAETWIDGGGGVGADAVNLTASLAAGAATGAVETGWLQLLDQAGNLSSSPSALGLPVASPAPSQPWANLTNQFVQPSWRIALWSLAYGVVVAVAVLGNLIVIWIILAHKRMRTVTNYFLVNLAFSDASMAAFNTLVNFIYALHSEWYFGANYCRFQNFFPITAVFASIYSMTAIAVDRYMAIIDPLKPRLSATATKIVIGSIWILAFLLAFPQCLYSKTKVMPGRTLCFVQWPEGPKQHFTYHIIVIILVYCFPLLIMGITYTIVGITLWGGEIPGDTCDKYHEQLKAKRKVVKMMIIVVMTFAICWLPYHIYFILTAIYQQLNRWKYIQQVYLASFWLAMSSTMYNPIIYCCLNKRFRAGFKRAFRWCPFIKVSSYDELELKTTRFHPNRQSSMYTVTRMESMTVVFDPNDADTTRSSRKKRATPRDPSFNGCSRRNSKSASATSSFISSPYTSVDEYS
The experiment in a line: [3H]SR142801 competition binding assay. As to conditions: hNK3 receptor binding, [3H]SR142801, membranes from HEK293 cells transiently expressing recombinant human NK3 receptor. The method, boiled down:
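Membranes from HEK293 cells transiently expressing human NK3 were incubated 75 min at RT with [3H]SR142801 at its KD and inhibitor (0.0003-10 μM) in Tris-HCl pH 7.4/MnCl2/phosphoramidon/BSA. Nonspecific binding used 10 μM SB222200. Ki from Hill-fitted IC50 via Cheng-Prusoff, duplicate determinations.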
Take `CN(Cc1ccc(C#N)cc1)[C@H]1CN(C(=O)N2CCN(S(C)(=O)=O)CC2)C[C@@H]1c1ccc(Cl)c(Cl)c1` (racemic) [Example 34, 4-({[(3RS,4SR)-4-(3,4-Dichloro-phenyl)-1-(4-methanesulfonyl-piperazine-1-carbonyl)-pyrrolidin-3-yl]-methyl-amino}-methyl)-benzonitrile]: the Ki was found to be 32.2 nM.
Still for that read-out and setting: next, `CN(Cc1ccc(C#N)c(F)c1)[C@H]1CN(C(=O)N2CCN(S(C)(=O)=O)CC2)C[C@@H]1c1ccc(Cl)c(Cl)c1` (racemic) [Example 56, 4-({[(3RS,4SR)-4-(3,4-Dichloro-phenyl)-1-(4-methanesulfonyl-piperazine-1-carbonyl)-pyrrolidin-3-yl]-methyl-amino}-methyl)-2-fluoro-benzonitrile]: 22 nM; `CN1CCN(CC(=O)N2C[C@H](c3ccc(Cl)c(Cl)c3)[C@@H](N(C)Cc3ccc(C(F)(F)F)c(F)c3)C2)CC1` (racemic) [Example 114, 1-{(3SR,4RS)-3-(3,4-Dichloro-phenyl)-4-[(3-fluoro-4-trifluoromethyl-benzyl)-methyl-amino]-pyrrolidin-1-yl}-2-(4-methyl-piperazin-1-yl)-ethanone]: 40.2 nM; `COc1ccc(N2CCN(C(=O)N3C[C@H](c4ccc(Cl)c(Cl)c4)[C@@H](N(C)Cc4ccc(C(F)(F)F)c(F)c4)C3)CC2)cc1` (racemic) [Example 64, {(3SR,4RS)-3-(3,4-Dichloro-phenyl)-4-[(3-fluoro-4-trifluoromethyl-benzyl)-methyl-amino]-pyrrolidin-1-yl}-[4-(4-methoxy-phenyl)-piperazin-1-yl]-methanone]: 2.8 nM.
On the same count and under the same terms, next, `CN(Cc1ccc(C(F)(F)F)c(F)c1)[C@H]1CN(C(=O)N2CCN(c3ccc(C#N)cc3)CC2)C[C@@H]1c1ccc(Cl)c(Cl)c1` (racemic) [Example 72, 4-(4-{(3SR,4RS)-3-(3,4-Dichloro-phenyl)-4-[(3-fluoro-4-trifluoromethyl-benzyl)-methyl-amino]-pyrrolidine-1-carbonyl}-piperazin-1-yl)-benzonitrile]: 2.7 nM; `CN(C)CCCNCC(=O)N1C[C@H](c2ccc(Cl)c(Cl)c2)[C@@H](N(C)Cc2ccc(C(F)(F)F)c(F)c2)C1` (racemic) [Example 125, 1-{(3SR,4RS)-3-(3,4-Dichloro-phenyl)-4-[(3-fluoro-4-trifluoromethyl-benzyl)-methyl-amino]-pyrrolidin-1-yl}-2-(3-dimethylamino-propylamino)-ethanone]: 76.8 nM; `COc1cccc(N2CCN(C(=O)N3C[C@H](c4ccc(Cl)c(Cl)c4)[C@@H](N(C)Cc4ccc(C(F)(F)F)c(F)c4)C3)CC2)n1` (racemic) [Example 77, {(3SR,4RS)-3-(3,4-Dichloro-phenyl)-4-[(3-fluoro-4-trifluoromethyl-benzyl)-methyl-amino]-pyrrolidin-1-yl}-[4-(6-methoxy-pyridin-2-yl)-piperazin-1-yl]-methanone]: 26.8 nM.
Consider `CC1CN(CC(=O)N2C[C@H](c3ccc(Cl)c(Cl)c3)[C@@H](N(C)Cc3ccc(C(F)(F)F)c(F)c3)C2)CC(C)N1` (mixture of isomers) [Example 139, 1-{(3SR,4RS)-3-(3,4-Dichloro-phenyl)-4-[(3-fluoro-4-trifluoromethyl-benzyl)-methyl-amino]-pyrrolidin-1-yl}-2-(3,5-dimethyl-piperazin-1-yl)-ethanone], for which the Ki was found to be 24.9 nM.
The same measure, in the same setting: with `C[C@@H]1CN(CC(=O)N2C[C@H](c3ccc(Cl)c(Cl)c3)[C@@H](N(C)Cc3ccc(C(F)(F)F)c(F)c3)C2)CCN1` (mixture of isomers) [Example 141, 1-{(3SR,4RS)-3-(3,4-Dichloro-phenyl)-4-[(3-fluoro-4-trifluoromethyl-benzyl)-methyl-amino]-pyrrolidin-1-yl}-2-((R)-3-methyl-piperazin-1-yl)-ethanone] the figure was 59.7 nM; with `CN(Cc1ccc(C(F)(F)F)c(F)c1)[C@H]1CN(C(=O)N2CCN(c3ccccn3)CC2)C[C@@H]1c1ccc(Cl)c(Cl)c1` (racemic) [Example 65, {(3SR,4RS)-3-(3,4-Dichloro-phenyl)-4-[(3-fluoro-4-trifluoromethyl-benzyl)-methyl-amino]-pyrrolidin-1-yl}-(4-pyridin-2-yl-piperazin-1-yl)-methanone], 4.1 nM.
With `CCN(CC)C(=O)N1CCN(C(=O)N2C[C@H](c3ccc(Cl)c(Cl)c3)[C@@H](N(C)Cc3ccc(C(F)(F)F)c(F)c3)C2)CC1` (racemic) [Example 78, 4-{(3SR,4RS)-3-(3,4-Dichloro-phenyl)-4-[(3-fluoro-4-trifluoromethyl-benzyl)-methyl-amino]-pyrrolidine-1-carbonyl}-piperazine-1-carboxylic acid diethylamide], the Ki is 4.8 nM.
In the case of `CN(C)CCCCC(=O)N1C[C@H](c2ccc(Cl)c(Cl)c2)[C@@H](N(C)Cc2ccc(C(F)(F)F)c(F)c2)C1` (racemic) [Example 87, 1-{(3SR,4RS)-3-(3,4-Dichloro-phenyl)-4-[(3-fluoro-4-trifluoromethyl-benzyl)-methyl-amino]-pyrrolidin-1-yl}-5-dimethylamino-pentan-1-one], the Ki was found to be 51.2 nM.
`CN(Cc1ccc(C(F)(F)F)c(F)c1)[C@H]1CN(C(=O)N2CCN(S(C)(=O)=O)CC2)C[C@@H]1c1ccc(Cl)c(Cl)c1` (racemic) [Example 31, {(3SR,4RS)-3-(3,4-Dichloro-phenyl)-4-[(3-fluoro-4-trifluoromethyl-benzyl)-methyl-amino]-pyrrolidin-1-yl}-(4-methanesulfonyl-piperazin-1-yl)-methanone]: the Ki turned out to be 8.3 nM.
As for `CN(Cc1ccc(C(F)(F)F)c(F)c1)[C@H]1CN(C(=O)CCCCn2ccnc2)C[C@@H]1c1ccc(Cl)c(Cl)c1` (racemic) [Example 91, 1-{(3SR,4RS)-3-(3,4-Dichloro-phenyl)-4-[(3-fluoro-4-trifluoromethyl-benzyl)-methyl-amino]-pyrrolidin-1-yl}-5-imidazol-1-yl-pentan-1-one], the Ki was 57.2 nM.
For the compound `CC(=O)N1CCN(CC(=O)N2C[C@H](c3ccc(Cl)c(Cl)c3)[C@@H](N(C)Cc3ccc(C(F)(F)F)c(F)c3)C2)CC1` (racemic) [Example 138, 2-(4-Acetyl-piperazin-1-yl)-1-{(3SR,4RS)-3-(3,4-dichloro-phenyl)-4-[(3-fluoro-4-trifluoromethyl-benzyl)-methyl-amino]-pyrrolidin-1-yl}-ethanone], the Ki worked out at 8.8 nM.
Take `CC(=O)N(C)C1CCN(CC(=O)N2C[C@H](c3ccc(Cl)c(Cl)c3)[C@@H](N(C)Cc3ccc(C(F)(F)F)c(F)c3)C2)CC1` (racemic) [Example 147, N-[1-(2-{(3SR,4RS)-3-(3,4-Dichloro-phenyl)-4-[(3-fluoro-4-trifluoromethyl-benzyl)-methyl-amino]-pyrrolidin-1-yl}-2-oxo-ethyl)-piperidin-4-yl]-N-methyl-acetamide]: the Ki amounted to 13.8 nM.
In the case of `CN(C)C1CCN(CC(=O)N2C[C@H](c3ccc(Cl)c(Cl)c3)[C@@H](N(C)Cc3ccc(C(F)(F)F)c(F)c3)C2)CC1` (racemic) [Example 136, 1-{(3SR,4RS)-3-(3,4-Dichloro-phenyl)-4-[(3-fluoro-4-trifluoromethyl-benzyl)-methyl-amino]-pyrrolidin-1-yl}-2-(4-dimethylamino-piperidin-1-yl)-ethanone], the Ki was 18.9 nM.
The same measure, in the same setting: with `CN(Cc1ccc(C(F)(F)F)c(F)c1)[C@H]1CN(C(=O)CN2C[C@@H]3C[C@@H]2CO3)C[C@@H]1c1ccc(Cl)c(Cl)c1` (mixture of isomers) [Example 148, 1-{(3SR,4RS)-3-(3,4-Dichloro-phenyl)-4-[(3-fluoro-4-trifluoromethyl-benzyl)-methyl-amino]-pyrrolidin-1-yl}-2-(1S,4R)-2-oxa-5-aza-bicyclo[2.2.1]hept-5-yl-ethanone] the figure was 25.1 nM.
On the same count and under the same terms, next, `CNCCCCC(=O)N1C[C@H](c2ccc(Cl)c(Cl)c2)[C@@H](N(C)Cc2ccc(C(F)(F)F)c(F)c2)C1` (racemic) [Example 86, 1-{(3SR,4RS)-3-(3,4-Dichloro-phenyl)-4-[(3-fluoro-4-trifluoromethyl-benzyl)-methyl-amino]pyrrolidin-1-yl}-5-methylamino-pentan-1-one]: 97.6 nM.
On to `CN(Cc1ccc(C(F)(F)F)c(F)c1)[C@H]1CN(C(=O)CCCCN2CCN(S(=O)(=O)N(C)C)CC2)C[C@@H]1c1ccc(Cl)c(Cl)c1` (racemic) [Example 90, 4-(5-{(3SR,4RS)-3-(3,4-Dichloro-phenyl)-4-[(3-fluoro-4-trifluoromethyl-benzyl)-methyl-amino]-pyrrolidin-1-yl}-5-oxo-pentyl)-piperazine-1-sulfonic acid dimethylamide], for which the Ki came out at 8.6 nM.
